Data on four compounds can be found in DBAASP.

≈ marks a conversion by molar mass, not a printed value. Where “and” joins values, the source holds several entries; their conditions need not be identical. Equal values may be shown once.

Among the test systems are Candida albicans C627; Escherichia coli DC2; Escherichia coli UB1005; Escherichia coli K88; Escherichia coli J2210; Escherichia coli JJ2487; Escherichia coli JW0013; Escherichia coli MC1061; Escherichia coli O157:H7.
Test in all cases: ≥ marks a high value that may be exact or a test limit, other limits are often not marked, values filed in µg/mL are converted to µM
Assay [1] deals with Aeromonas salmonicida 97-4.
The test system of assay [2] is Aeromonas salmonicida 99-1.
Assay [3] deals with Escherichia coli CGSC 4908.
The subject of assay [4] is Pseudomonas aeruginosa K799.
In assay [5] the test system is Pseudomonas aeruginosa Z61.
The test system of assay [6] is Salmonella enterica serovar typhimurium MS7953s.
The subject of assay [7] is Salmonella enterica subsp. enterica serovar Typhimurium ATCC 14028s.
For assay [8], the system named is Staphylococcus aureus C623.
Assay [9] relates to Staphylococcus epidermidis C621.
Assay [10] concerns Candida albicans ATCC 10231.
The subject of assay [11] is Cryptococcus neoformans ATCC 32045.
Assay [12] has as its system Escherichia coli ATCC 2592.
Assay [13] relates to Pseudomonas aeruginosa ATCC 10145.
The test system of assay [14] is Staphylococcus aureus ATCC 33591.
Assay [15] concerns Escherichia coli ATCC 25922.
Assay [16] concerns Escherichia coli O157:H7 CICC 21530.
Assay [17] has as its system Lacticaseibacillus rhamnosus 1.0911.
The test system of assay [18] is Lacticaseibacillus rhamnosus 1.0936.
Assay [19] has as its system Lacticaseibacillus rhamnosus 1.9021.
In assay [20] the test system is Lacticaseibacillus rhamnosus 8014.
Assay [21] has as its system Pseudomonas aeruginosa ATCC 27853.
Assay [22] deals with Pseudomonas aeruginosa PAO1.
Assay [23] concerns Salmonella enterica subsp. enterica serovar Choleraesuis CVCC 503.
Assay [24] deals with Salmonella enterica subsp. enterica serovar Pullorum C79-13.
Assay [25] relates to Salmonella enterica subsp. enterica serovar Typhimurium ATCC 14028.
Assay [26] concerns Staphylococcus aureus ATCC 29213.
For assay [27], the system named is Staphylococcus aureus ATCC 43300.
The subject of assay [28] is Staphylococcus epidermidis ATCC 12228.
The test system of assay [29] is Streptococcus agalactiae BNCC 185941.
In assay [30] the test system is Salmonella enterica subsp. enterica serovar Enteritidis MH91989.
Assay [31] concerns Salmonella typhimurium SL1344.

As to `CC[C@H](C)[C@H](NC(=O)[C@H](CC(C)C)NC(=O)CNC(=O)[C@H](Cc1cnc[nH]1)NC(=O)[C@@H](NC(=O)[C@H](Cc1c[nH]c2ccccc12)NC(=O)[C@H](CCCCN)NC(=O)CNC(=O)[C@@H](NC(=O)[C@H](Cc1cnc[nH]1)NC(=O)[C@H](Cc1cnc[nH]1)NC(=O)[C@@H](NC(=O)CNC(=O)[C@H](Cc1cnc[nH]1)NC(=O)[C@H](Cc1ccccc1)NC(=O)[C@H](CC(C)C)NC(=O)[C@H](CC(C)C)NC(=O)CNC(=O)[C@H](CC(C)C)NC(=O)[C@@H](N)Cc1ccccc1)C(C)C)C(C)C)[C@@H](C)CC)C(=O)N[C@@H](Cc1cnc[nH]1)C(=O)NCC(=O)N[C@@H](Cc1cnc[nH]1)C(=O)N[C@@H](Cc1cnc[nH]1)C(C)=O` [FLGLLFHGVHHVGKWIHGLIHGHH], the MIC in assay [1] was 23.3 µM (≈ 64 µg/mL); in assay [2], 23.3 µM (≈ 64 µg/mL); against Candida albicans C627 it was 23.3 µM (≈ 64 µg/mL); in assay [3], 11.6 µM (≈ 32 µg/mL); in the assay on Escherichia coli DC2 it was 11.6 µM (≈ 32 µg/mL); against Escherichia coli UB1005, 5.82 µM (≈ 16 µg/mL). The MIC in assay [4] came to 11.6 µM (≈ 32 µg/mL); in [5], 2.91 µM (≈ 7.99 µg/mL); in assay [6], 5.82 µM (≈ 16 µg/mL); in [7], 23.3 µM (≈ 64 µg/mL); in [8], 2.91 µM (≈ 7.99 µg/mL); in [9], 2.91 µM (≈ 7.99 µg/mL).
Take `NCCCC[C@H](NC(=O)[C@H](Cc1ccccc1)NC(=O)[C@H](CCCCN)NC(=O)[C@H](CCCCN)NC(=O)[C@H](Cc1ccccc1)NC(=O)[C@H](CCCCN)NC(=O)[C@H](CCCCN)NC(=O)[C@H](Cc1ccccc1)NC(=O)[C@H](CCCCN)NC(=O)[C@H](CCCCN)NC(=O)[C@H](Cc1ccccc1)NC(=O)[C@H](CCCCN)NC(=O)[C@H](CCCCN)NC(=O)[C@H](Cc1ccccc1)NC(=O)[C@H](CCCCN)NC(=O)[C@H](CCCCN)NC(=O)[C@H](Cc1ccccc1)NC(=O)[C@H](CCCCN)NC(=O)[C@H](CCCCN)NC(=O)[C@H](Cc1ccccc1)NC(=O)[C@H](CCCCN)NC(=O)[C@H](CCCCN)NC(=O)[C@H](Cc1ccccc1)NC(=O)[C@@H](N)CCCCN)C(=O)O` [KFKKFKKFKKFKKFKKFKKFKKFK]: the MIC in [10] was 54.5 µM (≈ 177 µg/mL); in [11], 15.3 µM (≈ 49.8 µg/mL); in assay [12], 13.7 µM (≈ 44.5 µg/mL); in assay [13], no less than 77 µM; in assay [14], no less than 77 µM.
Take `CC(C)C[C@H](NC(=O)CNC(=O)[C@H](CC(C)C)NC(=O)[C@H](Cc1c[nH]c2ccccc12)NC(=O)[C@H](CC(C)C)NC(=O)CNC(=O)[C@H](CC(C)C)NC(=O)[C@H](CCCN=C(N)N)NC(=O)[C@@H](N)CCCN=C(N)N)C(=O)N[C@@H](CCCN=C(N)N)C(=O)N[C@@H](CCCN=C(N)N)C(N)=O` [RRLGLWLGLRR]: the MIC in assay [15] is 4 µM and 8 µM; with Escherichia coli K88 it was 2 µM (≈ 2.79 µg/mL); in assay [16], 8 µM (≈ 11.2 µg/mL); in assay [17], no less than 64 µM; in assay [18], no less than 128 µM; in assay [19] it was no less than 128 µM. For the same compound, the MIC in assay [20] was no less than 128 µM; in assay [21], 4 µM (≈ 5.58 µg/mL); in assay [22], 8 µM (≈ 11.2 µg/mL); in [23], no less than 128 µM; in [24], 2 µM (≈ 2.79 µg/mL); in assay [25], 32 µM (≈ 44.6 µg/mL). Further, the MIC is 16 µM (≈ 22.3 µg/mL) in [26], 16 µM (≈ 22.3 µg/mL) in assay [27], 128 µM (≈ 179 µg/mL) in [28] and no less than 128 µM in [29].
Turning to `CC[C@H](C)[C@H](NC(=O)[C@H](CCCN=C(N)N)NC(=O)[C@H](CCCN=C(N)N)NC(=O)[C@@H]1CCCN1C(=O)[C@@H]1CCCN1C(=O)[C@H](CCCN=C(N)N)NC(=O)[C@@H]1CCCN1C(=O)[C@H](CCCN=C(N)N)NC(=O)[C@@H]1CCCN1C(=O)[C@H](CCCCN)NC(=O)[C@H](Cc1ccc(O)cc1)NC(=O)[C@@H]1CCCN1C(=O)[C@H](CCCN=C(N)N)NC(=O)[C@H](CCCCN)NC(=O)[C@H](CC(=O)O)NC(=O)[C@@H](N)C(C)C)C(=O)N[C@@H](Cc1ccc(O)cc1)C(=O)N[C@@H](CC(N)=O)C(=O)N[C@@H](CCCN=C(N)N)C(N)=O` [VDKRPYKPRPRPPRRIYNR], the MIC against Escherichia coli J2210 amounted to 0.122 µM (≈ 0.3 µg/mL); against Escherichia coli JJ2487, 0.158 µM (≈ 0.39 µg/mL); against Escherichia coli JW0013, 0.337 µM (≈ 0.83 µg/mL); with Escherichia coli MC1061 it was 0.0609 µM (≈ 0.15 µg/mL); against Escherichia coli O157:H7 it was 0.974 µM (≈ 2.4 µg/mL); in [30] it was 0.158 µM (≈ 0.39 µg/mL). This compound also displayed an MIC in assay [31] of 0.158 µM (≈ 0.39 µg/mL).

A word on the MIC: it is the least concentration at which growth counts as inhibited.
